# Experimental data published in patent US6121431A, “Nucleoside derivatives” (Medivir AB, priority 1990, dated 2000).
# Columns and labels:
# [1] = tested on: H9 cells; test: Cellular toxicity on H9 cells (inhibition of cell multiplication); format: cell-based; conditions: Homo sapiens, 1 mM, 48 h
# Method: Test II. Cellular toxicity
# H9 cells, 2×10^7 cells per plate, are incubated in RPMI-1640 medium containing 10% fetal calf serum, 70 mg/l penicillin, 100 mg/l streptomycin and 10 mM hepes, in absence or presence of test compounds. The number of cells per plate is determined after 48 h. Cells incubated in the absence of test compounds then underwent two cell division cycles.
# F5000 cells, which are human embryo cells, 1×10^5 cells per plate, are incubated in Eagle's minimal essential medium, supplemented with Earle's sals, non-essential amino acids, 10% fetal calf serum, 10 mM hepes, 70 mg/l penicillin and 100 mg/l streptomycin, in absence or presence of test compounds. The number of cells per plate is determined after 48 h. Cells incubated in the absence of test compounds underwent one cell division cycle.
# [2] = tested on: human immuno deficiency virus; test: Effect of compounds of the formula I on HIV in H9 cells (HIV multiplication in cell culture, HIV antigen containing cells); format: cell-based; conditions: Human immunodeficiency virus 1, HIV (HTLV-IIIB), 6-7 days, 37° C., read-out: Concentration for 50% inhibition (IC50) of human immuno deficiency virus multiplication in cell culture
# Method: Test I. Effect of compounds of the formula I on HIV in H9 cells
# HIV Infection of H9 Cells
# H9 cells, 10^5 cells per well on a 24 well plate, suspended in 2 ml RPMI-medium containing 10% fetal calf serum […] penicillin, 10 mg/mil streptomycin sulfate and 2 mg/ml polybrene are exposed to HIV (HTLV-IIIB) and different concentrations of the test compounds. The plates are incubated at 37° C. in 5% CO2 for 6-7 days. The contents in each well is then homogenized with a pipette and transferred to a centrifuge tube. After centrifugation for 10 min at 1500 rpm the supernatant is removed and the cell pellet is analyzed by fixing in methanol on glass plates. Human HIV positive serum diluted 1:80 or 1:160 is added and incubated for 30 min at 37° C. The plate is then washed with phosphate-buffered saline (PBS) containing Ca^2+ and Mg^2+. Sheep antihuman conjugate (FITC) is added and after a new incubation the plate is again washed with PBS. Contrast staining is done with Evans blue and after drying the frequency of HIV antigen containing cells is determined in a microscope.
SMILES,IC50 [2] [µM],inhibition at 1000 µM [1] [%]
"Nc1ccn([C@H]2C[C@H](CO)[C@@H](CO)O2)c(=O)n1 [1-2',3'-Dideoxy-3'-C-(hydroxymethyl)-β-D-erythropentofuranosyl]-cytosine]",0.01,50
"Cc1cn([C@@H]2C[C@H](CO)[C@@H](CO)O2)c(=O)[nH]c1=O [1-(2',3'-Dideoxy-3'-C-(hydroxymethyl)-α-D-erythro-pentafuranosyl]thymine]",10,

# Further lines, with some results ahead:
IC50 [2] [µM],SMILES,inhibition at 1000 µM [1] [%]
5,"Nc1ccn([C@@H]2C[C@H](CO)[C@@H](CO)O2)c(=O)n1 [1-[2',3'-Dideoxy-3'-C-(hydroxymethyl)-α-D-erythro-pentafuranosyl]cytosine]",
5,"Cc1cn([C@H]2C[C@H](CO)[C@@H](CO)O2)c(=O)[nH]c1=O [1-[2',3'-Dideoxy-3'-C-(hydroxymethyl)-β-D-erythro-pentofuranosyl]-thymine]",
10,"Nc1ncnc2c1ncn2[C@@H]1C[C@H](CO)[C@@H](CO)O1 [9-[2',3'-Dideoxy-3'-C-(hydroxymethyl)-α-D-erythropentofuranosyl]-adenosine]",
